# Tests used:
# Rat [1] = test: concentration in liver after dosing; details: oral
# Rat [2] = test: concentration in liver after dosing; details: 0.5 h; dosed: Fluorotelomer alcohol 8+2; 24 mg/kg; oral; Male; Harlan Sprague Dawley
# Rat [3] = test: concentration in liver after dosing; details: 12 h; dosed: Perfluorooctanoic acid; 12 mg/kg; oral; Male; Harlan Sprague Dawley
# Rat [4] = test: concentration in brain after dosing; details: oral, Harlan Sprague Dawley
# Rat [5] = test: concentration in kidney after dosing; details: oral
# Rat [6] = test: concentration in plasma after dosing; details: dosed: 678-39-7, 40 mg/kg, iv, Male, F344
# Rat [7] = test: concentration in plasma after dosing
# [8] = 0.5 h, dosed: Fluorotelomer alcohol 8+2, 80 mg/kg, Female, Harlan Sprague Dawley
# [9] = 1 h, dosed: Fluorotelomer alcohol 8+2, 24 mg/kg, Male, Harlan Sprague Dawley
# [10] = 1 h, dosed: Fluorotelomer alcohol 8+2, 80 mg/kg, Female, Harlan Sprague Dawley
# [11] = 3 h, dosed: Fluorotelomer alcohol 8+2, 24 mg/kg, Male, Harlan Sprague Dawley
# [12] = 3 h, dosed: Fluorotelomer alcohol 8+2, 80 mg/kg, Female, Harlan Sprague Dawley
# [13] = 3 h, dosed: Perfluorooctanoic acid, 12 mg/kg, Male, Harlan Sprague Dawley
# [14] = 3 h, dosed: Perfluorooctanoic acid, 80 mg/kg, Female, Harlan Sprague Dawley
# [15] = 6 h, dosed: Fluorotelomer alcohol 8+2, 24 mg/kg, Male, Harlan Sprague Dawley
# [16] = 6 h, dosed: Fluorotelomer alcohol 8+2, 80 mg/kg, Female, Harlan Sprague Dawley
# [17] = 6 h, dosed: Perfluorooctanoic acid, 12 mg/kg, Male, Harlan Sprague Dawley
# [18] = 6 h, dosed: Perfluorooctanoic acid, 80 mg/kg, Female, Harlan Sprague Dawley
# [19] = 12 h, dosed: Fluorotelomer alcohol 8+2, 24 mg/kg, Male, Harlan Sprague Dawley
# [20] = 12 h, dosed: Fluorotelomer alcohol 8+2, 80 mg/kg, Female, Harlan Sprague Dawley
# [21] = 12 h, dosed: Perfluorooctanoic acid, 12 mg/kg, Male, Harlan Sprague Dawley
# [22] = 12 h, dosed: Perfluorooctanoic acid, 80 mg/kg, Female, Harlan Sprague Dawley
# [23] = 24 h, dosed: Perfluorooctanoic acid, 12 mg/kg, Male, Harlan Sprague Dawley
# [24] = 24 h, dosed: Perfluorooctanoic acid, 80 mg/kg, Female, Harlan Sprague Dawley
# [25] = 48 h, dosed: Perfluorooctanoic acid, 80 mg/kg, Female, Harlan Sprague Dawley
# [26] = 192 h, dosed: Perfluorooctanoic acid, 12 mg/kg, Male, Harlan Sprague Dawley
# [27] = 528 h, dosed: Perfluorooctanoic acid, 12 mg/kg, Male, Harlan Sprague Dawley
# [28] = 528 h, dosed: Perfluorooctanoic acid, 12 mg/kg, Male, Harlan Sprague Dawley - this seems too small
# [29] = 1200 h, dosed: Perfluorooctanoic acid, 12 mg/kg, Male, Harlan Sprague Dawley
smiles,measurement,setting,value
O=C(O)C(F)(F)C(F)(F)C(F)(F)C(F)(F)C(F)(F)C(F)(F)C(F)(F)F [Perfluorooctanoic acid],concentration in liver,"Rat [1]; 0.5 h, dosed: Fluorotelomer alcohol 8+2, 24 mg/kg, Male, Harlan Sprague Dawley",325 ng/g
same,concentration in liver,"Rat [1]; 0.5 h, dosed: Fluorotelomer alcohol 8+2, 24 mg/kg, Male, Harlan Sprague Dawley - this seems too small",211 ng/g
same,concentration in liver,Rat [1]; [8],434 ng/g
same,concentration in liver,Rat [1]; [9],751 ng/g
same,concentration in liver,Rat [1]; [10],816 ng/g
same,concentration in liver,Rat [1]; [11],1150 ng/g
same,concentration in liver,Rat [1]; [12],1540 ng/g
same,concentration in liver,Rat [1]; [13],49900 ng/g
same,concentration in liver,Rat [1]; [14],35300 ng/g
same,concentration in liver,Rat [1]; [15],1460 ng/g
same,concentration in liver,Rat [1]; [16],1970 ng/g
same,concentration in liver,Rat [1]; [17],51000 ng/g
same,concentration in liver,Rat [1]; [18],197000 ng/g
same,concentration in liver,Rat [1]; [19],2000 ng/g
same,concentration in liver,Rat [1]; [20],701 ng/g
same,concentration in liver,Rat [1]; [21],65600 ng/g
same,concentration in liver,Rat [1]; [22],52000 ng/g
same,concentration in liver,Rat [1]; [23],64800 ng/g
same,concentration in liver,Rat [1]; [24],7890 ng/g
same,concentration in liver,Rat [1]; [25],573 ng/g
same,concentration in liver,Rat [1]; [26],48600 ng/g
same,concentration in liver,Rat [1]; [27],14900 ng/g
same,concentration in liver,Rat [1]; [28],22600 ng/g
same,concentration in liver,Rat [1]; [29],2160 ng/g
same,concentration in liver,Rat [2],300 ng/g
same,concentration in liver,Rat [3],56700 ng/g
same,concentration in brain,"Rat [4]; 3 h, dosed: Perfluorooctanoic acid, 12 mg/kg, Male",1300 ng/g
same,concentration in brain,"Rat [4]; 3 h, dosed: Perfluorooctanoic acid, 80 mg/kg, Female",916 ng/g
same,concentration in brain,"Rat [4]; 6 h, dosed: Fluorotelomer alcohol 8+2, 80 mg/kg, Female",224 ng/g
same,concentration in brain,"Rat [4]; 6 h, dosed: Perfluorooctanoic acid, 12 mg/kg, Male",1140 ng/g
same,concentration in brain,"Rat [4]; 6 h, dosed: Perfluorooctanoic acid, 80 mg/kg, Female",4050 ng/g
same,concentration in brain,"Rat [4]; 12 h, dosed: Perfluorooctanoic acid, 12 mg/kg, Male",1390 ng/g
same,concentration in brain,"Rat [4]; 12 h, dosed: Perfluorooctanoic acid, 80 mg/kg, Female",1360 ng/g
same,concentration in brain,"Rat [4]; 24 h, dosed: Perfluorooctanoic acid, 12 mg/kg, Male",1080 ng/g
same,concentration in brain,"Rat [4]; 192 h, dosed: Perfluorooctanoic acid, 12 mg/kg, Male",584 ng/g
same,concentration in kidney,Rat [5]; [8],284 ng/g
same,concentration in kidney,Rat [5]; [9],190 ng/g
same,concentration in kidney,Rat [5]; [10],677 ng/g
same,concentration in kidney,Rat [5]; [11],270 ng/g
same,concentration in kidney,Rat [5]; [12],1260 ng/g
same,concentration in kidney,Rat [5]; [13],42500 ng/g
same,concentration in kidney,Rat [5]; [14],70300 ng/g
same,concentration in kidney,Rat [5]; [15],243 ng/g
same,concentration in kidney,Rat [5]; [16],2480 ng/g
same,concentration in kidney,Rat [5]; [17],25600 ng/g
same,concentration in kidney,Rat [5]; [18],263000 ng/g
same,concentration in kidney,Rat [5]; [19],419 ng/g
same,concentration in kidney,Rat [5]; [20],874 ng/g
same,concentration in kidney,Rat [5]; [21],36200 ng/g
same,concentration in kidney,Rat [5]; [22],61600 ng/g
same,concentration in kidney,Rat [5]; [23],30400 ng/g
same,concentration in kidney,Rat [5]; [24],11600 ng/g
same,concentration in kidney,Rat [5]; [25],541 ng/g
same,concentration in kidney,Rat [5]; [26],20300 ng/g
same,concentration in kidney,Rat [5]; [27],3900 ng/g
same,concentration in kidney,Rat [5]; [28],6140 ng/g
same,concentration in kidney,Rat [5]; [29],574 ng/g
same,concentration in plasma,Rat [6]; 0.5 h,1400 ng/mL
same,concentration in plasma,Rat [6]; 9 h,716 ng/mL
same,concentration in plasma,"Rat [7]; 5 min, dosed: 678-39-7, 12 mg/kg, iv, Male, F344",29.7 ng/mL
same,concentration in plasma,"Rat [7]; 5 min, dosed: 678-39-7, 40 mg/kg, iv, Male, F344",189 ng/mL
same,concentration in plasma,"Rat [7]; 0.25 h, dosed: 678-39-7, 12 mg/kg, iv, Male, F344",184 ng/mL
same,concentration in plasma,"Rat [7]; 0.25 h, dosed: 678-39-7, 40 mg/kg, iv, Male, F344",257000 ng/mL
same,concentration in plasma,"Rat [7]; 0.25 h, dosed: Fluorotelomer alcohol 8+2, 12 mg/kg, oral, Male, Harlan Sprague Dawley",14.2 ng/mL
same,concentration in plasma,"Rat [7]; 0.5 h, dosed: 678-39-7, 12 mg/kg, iv, Male, F344",282 ng/mL
same,concentration in plasma,"Rat [7]; 0.5 h, dosed: 678-39-7, 40 mg/kg, iv, Female, Harlan Sprague-Dawley",1570 ng/mL
same,concentration in plasma,"Rat [7]; 0.5 h, dosed: 678-39-7, 40 mg/kg, iv, Male, F344",1510 ng/mL
same,concentration in plasma,"Rat [7]; 0.5 h, dosed: Fluorotelomer alcohol 8+2, 12 mg/kg, oral, Male, Harlan Sprague Dawley",68.8 ng/mL
same,concentration in plasma,"Rat [7]; 0.75 h, dosed: 678-39-7, 12 mg/kg, iv, Male, F344",203 ng/mL
same,concentration in plasma,"Rat [7]; 0.75 h, dosed: 678-39-7, 40 mg/kg, iv, Female, Harlan Sprague-Dawley",1860 ng/mL
same,concentration in plasma,"Rat [7]; 0.75 h, dosed: Fluorotelomer alcohol 8+2, 12 mg/kg, oral, Male, Harlan Sprague Dawley",159 ng/mL
same,concentration in plasma,"Rat [7]; 1 h, dosed: 678-39-7, 12 mg/kg, iv, Male, F344",396 ng/mL
same,concentration in plasma,"Rat [7]; 1 h, dosed: 678-39-7, 40 mg/kg, iv, Female, Harlan Sprague-Dawley",2280 ng/mL
same,concentration in plasma,"Rat [7]; 3 h, dosed: 678-39-7, 12 mg/kg, iv, Male, F344",478 ng/mL
same,concentration in plasma,"Rat [7]; 3 h, dosed: 678-39-7, 40 mg/kg, iv, Male, F344",2030 ng/mL
same,concentration in plasma,"Rat [7]; 3 h, dosed: Fluorotelomer alcohol 8+2, 12 mg/kg, oral, Male, Harlan Sprague Dawley",423 ng/mL
same,concentration in plasma,"Rat [7]; 6 h, dosed: 678-39-7, 12 mg/kg, iv, Male, F344",630 ng/mL
same,concentration in plasma,"Rat [7]; 6 h, dosed: Fluorotelomer alcohol 8+2, 12 mg/kg, oral, Male, Harlan Sprague Dawley",634 ng/mL
same,concentration in plasma,"Rat [7]; 9 h, dosed: 678-39-7, 12 mg/kg, iv, Male, F344",607 ng/mL
same,concentration in plasma,"Rat [7]; 9 h, dosed: 678-39-7, 40 mg/kg, iv, Female, Harlan Sprague-Dawley",622 ng/mL
same,concentration in plasma,"Rat [7]; 9 h, dosed: 678-39-7, 40 mg/kg, iv, Male, F344",702 ng/mL
same,concentration in plasma,"Rat [7]; 9 h, dosed: Fluorotelomer alcohol 8+2, 12 mg/kg, oral, Male, Harlan Sprague Dawley",578 ng/mL
same,concentration in plasma,"Rat [7]; 12 h, dosed: 678-39-7, 12 mg/kg, iv, Male, F344",364 ng/mL
same,concentration in plasma,"Rat [7]; 12 h, dosed: 678-39-7, 40 mg/kg, iv, Female, Harlan Sprague-Dawley",353 ng/mL
same,concentration in plasma,"Rat [7]; 12 h, dosed: 678-39-7, 40 mg/kg, iv, Male, F344",12300 ng/mL
same,concentration in plasma,"Rat [7]; 12 h, dosed: Fluorotelomer alcohol 8+2, 12 mg/kg, oral, Male, Harlan Sprague Dawley",507 ng/mL
same,concentration in plasma,"Rat [7]; 24 h, dosed: 678-39-7, 12 mg/kg, iv, Male, F344",460 ng/mL
same,concentration in plasma,"Rat [7]; 24 h, dosed: 678-39-7, 40 mg/kg, iv, Female, Harlan Sprague-Dawley",52.2 ng/mL
same,concentration in plasma,"Rat [7]; 48 h, dosed: Fluorotelomer alcohol 8+2, 12 mg/kg, oral, Male, Harlan Sprague Dawley",536 ng/mL
same,concentration in plasma,"Rat [7]; 192 h, dosed: 678-39-7, 12 mg/kg, iv, Male, F344",260 ng/mL
same,concentration in plasma,"Rat [7]; 192 h, dosed: Fluorotelomer alcohol 8+2, 12 mg/kg, oral, Male, Harlan Sprague Dawley",356 ng/mL

# — EPA's CvTdb concentration-time database
